Consider one compound from patent US11692222B2, “Animal model of non-alcoholic liver disease and composition of diagnosis, prevention or treatment for non-alcoholic liver disease” (KOREA ADVANCED INSTITUTE OF SCIENCE AND TECHNOLOGY, priority 2018, dated 2023).

The test system of experiment [1] is DKO mice (Pten−/−;Sav1−/−). Description: MK-2206 treatment of 3-week-old DKO mice for 2 weeks (fatty liver). It is filed as in vivo, mouse. The conditions noted are these: 66 mg/kg i.p. every other day for 2 weeks, vs vehicle. How it is done:
(§1) Adenovirus for overexpression of CRE, YAP5SA, TAZ4SA, or GFP (control) and AAV-saCas9-sgIrs2 or sgCtl in the mouse liver were injected into the tail vain of […], respectively. The mice were deprived of food for 16 hours at day 4 (YAP5SA, TAZ4SA, and GFP) or week 4 (CRE and GFP) after adenovirus injection. MK-2206 (Selleckchem; S1078) was prepared in 30% Captisol (CyDex Pharmaceuticals; RC-0C7) and administered to DKO mice by intraperitoneal injection at a dose of 66 mg/kg every other day for 2 weeks, beginning at 3 or 12 weeks of age.
Given the lack of treatments for NASH, the present inventors next asked whether pharmacological inhibition of AKT could ameliorate fatty liver and slow cancer progression in DKO mice. To this end, the present inventors administered the pan-AKT inhibitor MK-2206 (phase II clinical trials) intraperitoneally to 3-week-old DKO mice.
FIGS. 8b to 8d are graphs of the result of liver-to-body weight ratio percentage, the analysis of liver enzymes in the serum, the qPCR analysis of lipogenesis-related gene expression in the liver of control (white bars) and MK-2206 (red bars), respectively.

Experiment [2] concerns DKO mice (Pten−/−;Sav1−/−). Kind of experiment: MK-2206 treatment of 12-week-old DKO mice for 2 weeks (liver cancer). It is filed as in vivo, mouse. As to the method:
as §1
Further, to investigate the suppression of liver cancer, MK-2206 was injected to 12-week-old DKO mice that 80% of them had liver tumor (FIG. 1b). The graphs of FIG. 8f are the result of the result of liver-to-body weight ratio (F), liver tumor number and size (G), serum analysis (H) of the experiment shown in FIG. 8f. The graph representing the quantification analysis of Ki-67^+ hepatocytes of specimen is shown in FIG. 8h, and a graph representing the qPCR analysis of the expression of genes related to fibrosis (Acta2, desmin, and Tgfb), cell death or injury (Hmox1 and Gadd153), or inflammation (Tnfa) is shown in FIG. 8i.

Where [3] appears, read: 12-week-old DKO mice, 2 weeks treatment, vs vehicle.

Turning to `NC1(c2ccc(-c3nc4ccn5c(=O)[nH]nc5c4cc3-c3ccccc3)cc2)CCC1` [MK-2206], in experiment [1], the “expression of lipogenesis-related genes (Fasn, Acc1, Srebp1c), qPCR in liver” value is recorded as “lower expression of lipogenesis-related genes”; the “fatty liver (macroscopic, H&E, Oil red O)” value is on record as “less fatty liver”; the “liver fibrosis (Sirius red)” value was “reduced liver fibrosis”; the “liver function (liver enzymes in serum)” value is on record as “improved liver function”. Also, the “liver weight (liver-to-body weight ratio)” value in experiment [1] is recorded as “decreased liver weight”. Besides, the “fatty liver and tumorigenesis” value in experiment [2] (12-week-old DKO mice, 66 mg/kg i.p. every other day for 2 weeks, vs vehicle) was “reduced fatty liver and tumorigenesis”. In experiment [2] (setting [3]), the Ki-67-positive cells entry is “fewer Ki-67-positive cells”; the “YAP expression (IHC)” value is “without a corresponding change in YAP expression”; the “expression of genes related to fibrosis (Acta2, desmin, Tgfb), cell death or injury (Hmox1, Gadd153) and inflammation (Tnfa), qPCR” value is reported as “reduced expression of genes related to fibrosis”; the “fibrosis (Picrosirius red)” value is given as “reduced fibrosis”. Besides, in experiment [2] (setting [3]), the “hepatocyte TAZ expression (IHC)” value is recorded as “lower levels of hepatocyte TAZ expression”, the “hepatocytes with excessive lipid droplets (H&E)” value is listed as “fewer hepatocytes with excessive lipid droplets”, the liver color result is reported as “normalized liver color” and the “liver size (liver-to-body weight ratio)” value is on record as “reduced liver size”. The tumor nodule size result in experiment [2] (setting [3]) is “reduction in tumor nodule size”. Moreover, in experiment [2] (overall conclusion, DKO mice treated from 3 or 12 weeks of age), the “development of NAFLD and liver cancer in DKO mice” value was “markedly attenuates the development of NAFLD and liver cancer”.
